Test results reported in patent US20080280891A1, “Anti-cancer agents and uses thereof” (Locus Pharmaceuticals, Inc., priority 2006, published 2008).

Columns and labels:
[1] = test system: NCI-H522 non small cell lung cancer cells; assay: Cell cycle assay (Example 164), G2/M block in NCI-H522 cells; assay type: cell-based; details: Homo sapiens; for activation at 0.1 µM: 24 h, flow cytometry (PI)
Experimental: (§1) The adherent MCF-7 breast cancer cells and NCI-H522 non small cell lung cancer cells were grown and maintained in EMEM cell culture media containing 10% fetal calf serum.
(§2) Cells were allowed to adhere for 24 hrs. After adherence, cell culture media was changed to that containing 0.5% FCS. Thirty minutes post-media change, test compounds were added at a concentration of either 1.0 or 0.1 μM (as specified in the Tables). Twenty-four hours after test agent addition, cells were analyzed for cell cycle status as described below.
(§3) Cell cycle status was analyzed by flow cytometry. Briefly, cells were collected and washed with FACs buffer (Pharmingen) and resuspended and fixed in 1 mL of 80% ethanol for 1 hr. Cells were washed with FACs buffer and resuspended in propidium iodide(PI)/RNase staining buffer (Pharmingen). PI is a fluorescent dye that labels nucleic acids such as DNA. The fluorescence within a cell (in the presence of PI) is proportional to the amount of DNA within a cell. The cell content of DNA is an indicator of status in the cell cycle. […] Cells in the S phase have DNA content that lies between these extremes.
(§4) For testing of cell cycle effects of test agents the percentage of cells within the G1 and G2/M phase were measured.

[2] = test system: MCF-7 breast cancer cells; assay: Cell cycle assay (Example 164), G2/M block in MCF-7 cells; assay type: cell-based; details: for activation at 0.1 µM / IC50: Homo sapiens, MCF7; for activation at 0.1 µM / MCF-7 G2/M Block 1 μM: 24 h, flow cytometry (PI); for activation at 0.1 µM: Table 4; for MCF-7 G2/M Block 1 μM: Table 3; for IC50: MCF-7, footnotes * and ** of Table 4, read-out: IC50 (footnote mark in column MCF-7 G2/M Block)
Experimental: as §1, §2, §3, §4

SMILES	activation at 0.1 µM ([1]; Table 4)	activation at 0.1 µM [2]	also measured
Cc1cc(C(=O)c2cc(NS(C)(=O)=O)cc(-c3cccc4[nH]ccc34)c2)cc(N(C)C)n1 [N-[3-(2-Dimethylamino-6-methyl-pyridine-4-carbonyl)-5-(1H-indol-4-yl)-phenyl]-methanesulfonamide]	≥ 50%	≥ 50%	–
CC(=O)Nc1cc(C(=O)c2cc(C)nc(N3CCOCC3)c2)cc(-c2cccc3[nH]ccc23)c1 [N-[3-(1H-Indol-4-yl)-5-(2-methyl-6-morpholin-4-yl-pyridine-4-carbonyl)-phenyl]-acetamide]	≥ 50%	≥ 50%	–
COC(=O)Nc1cc(C(=O)c2ccnc(OC)c2)cc(-c2cccc3[nH]ccc23)c1 [[3-(1H-Indol-4-yl)-5-(2-methoxy-pyridine-4-carbonyl)-phenyl]-carbamic acid methyl ester]	< 50%	≥ 50%	–
CS(=O)(=O)Nc1cc(-c2cccc(C(F)(F)F)c2)cc(-c2cccc3[nH]ccc23)c1 [N-[5-(1H-indol-4-yl)-3′-trifluoromethyl-biphenyl-3-yl]-methanesulfonamide]	≥ 50%	≥ 50%	–
Nc1nccc(-c2cc(O)cc(-c3cccc4[nH]ccc34)c2)n1 [3-(2-Amino-pyrimidin-4-yl)-5-(1H-indol-4-yl)-phenol]	≥ 50%	< 50%	–
Cc1cccc(-c2cc(NS(C)(=O)=O)cc(-c3cccc4[nH]ccc34)c2)c1 [N-[5-(1H-Indol-4-yl)-3′-methyl-biphenyl-3-yl]-methanesulfonamide]	≥ 50%	≥ 50%	–
O=C(CO)Nc1cc(C(=O)c2ccnc(N3CCOCC3)c2)cc(-c2cccc3[nH]ccc23)c1 [2-Hydroxy-N-[3-(1H-indol-4-yl)-5-(2-morpholin-4-yl-pyridine-4-carbonyl)-phenyl]-acetamide]	≥ 50%	≥ 50%	–
COC(=O)Nc1cc(-c2nc3ccccc3o2)cc(-c2cccc3[nH]ccc23)c1 [[3-Benzoxazol-2-yl-5-(1H-indol-4-yl)-phenyl]-carbamic acid methyl ester]	≥ 50%	≥ 50%	–
COc1ccc(-c2cc(NS(C)(=O)=O)cc(-c3cccc4[nH]ccc34)c2)cn1 [N-[3-(1H-Indol-4-yl)-5-(6-methoxy-pyridin-3-yl)-phenyl]-methanesulfonamide]	≥ 50%	≥ 50%	–
COC(=O)Nc1cc(-c2cccnc2)cc(-c2cccc3[nH]ccc23)c1 [[3-(1H-Indol-4-yl)-5-pyridin-3-yl-phenyl]-carbamic acid methyl ester]	≥ 50%	< 50%	–
N#Cc1ccc(Nc2cc(O)cc(-c3cccc4[nH]ccc34)c2)cc1 [4-[3-Hydroxy-5-(1H-indol-4-yl)-phenylamino]-benzonitrile]	–	–	activation at 0.1 µM ([1]; Table 3): ≥ 50%; MCF-7 G2/M Block 1 μM [2]: N (N indicates a less than 50% increase at this dose)
CC(=O)Nc1cc(-c2ccncc2)cc(-c2cccc3[nH]ccc23)c1 [N-[3-(1H-Indol-4-yl)-5-pyridin-4-yl-phenyl]-acetamide]	≥ 50%	≥ 50%	–
COC(=O)Nc1cc(C(=O)c2ccnc(Cl)c2)cc(-c2cccc3[nH]ccc23)c1 [[3-(2-Chloro-pyridine-4-carbonyl)-5-(1H-indol-4-yl)-phenyl]-carbamic acid methyl ester]	< 50%	< 50%	IC50 [2]: 0.5 to 5 µM
COC(=O)Nc1cc(C(=O)c2cc(C)nc(C)c2)cc(-c2cccc3[nH]ccc23)c1 [[3-(2,6-Dimethyl-pyridine-4-carbonyl)-5-(1H-indol-4-yl)-phenyl]-carbamic acid methyl ester]	≥ 50%	≥ 50%	–
COC(=O)Nc1cc(C(=O)c2ccnc(C)c2)cc(-c2cccc3[nH]ccc23)c1 [[3-(1H-Indol-4-yl)-5-(2-methyl-pyridine-4-carbonyl)-phenyl]-carbamic acid methyl ester]	≥ 50%	< 50%	–
COc1cc(C(=O)c2cc(NS(C)(=O)=O)cc(-c3cccc4[nH]ccc34)c2)ccn1 [N-[3-(1H-Indol-4-yl)-5-(2-methoxy-pyridine-4-carbonyl)-phenyl]-methanesulfonamide]	–	–	activation at 0.1 µM ([1]; Table 3): ≥ 50%; MCF-7 G2/M Block 1 μM [2]: Y (Y indicates a 50% or greater increase in the number of cells in the G2/M phase, as compared to control)
COC(=O)Nc1cc(C(=O)c2cc(C)nc(N(C)C)c2)cc(-c2cccc3[nH]ccc23)c1 [[3-(2-Dimethylamino-6-methyl-pyridine-4-carbonyl)-5-(1H-indol-4-yl)-phenyl]-carbamic acid methyl ester]	≥ 50%	≥ 50%	–

SMILES	activation at 0.1 µM ([1]; Table 4)	activation at 0.1 µM [2]	also measured
CS(=O)(=O)Nc1cc(C(=O)c2ccnc(N3CCOCC3)c2)cc(-c2cccc3[nH]ccc23)c1 [N-[3-(1H-Indol-4-yl)-5-(2-morpholin-4-yl-pyridine-4-carbonyl)-phenyl]-methanesulfonamide]	≥ 50%	≥ 50%	–
CC(=O)Nc1cc(C(=O)c2ccnc(N3CCOCC3)c2)cc(-c2cccc3[nH]ccc23)c1 [N-[3-(1H-Indol-4-yl)-5-(2-morpholin-4-yl-pyridine-4-carbonyl)-phenyl]-acetamide]	≥ 50%	≥ 50%	–
CS(=O)(=O)Nc1cc(-c2ccnc(N)n2)cc(-c2cccc3[nH]ccc23)c1 [N-[3-(2-Amino-pyrimidin-4-yl)-5-(1H-indol-4-yl)-phenyl]-methanesulfonamide]	≥ 50%	≥ 50%	–
Nc1ccc(-c2cccc3[nH]ccc23)cc1C(=O)c1cccnc1 [[2-Amino-5-(1H-indol-4-yl)-phenyl]-pyridin-3-yl-methanone]	–	–	activation at 0.1 µM ([1]; Table 3): ≥ 50%; MCF-7 G2/M Block 1 μM [2]: Y (Y indicates a 50% or greater increase in the number of cells in the G2/M phase, as compared to control)
CS(=O)(=O)Nc1cc(C(=O)c2ccnc(N3CCSCC3)c2)cc(-c2cccc3[nH]ccc23)c1 [N-[3-(1H-Indol-4-yl)-5-(2-thiomorpholin-4-yl-pyridine-4-carbonyl)-phenyl]-methanesulfonamide]	≥ 50%	≥ 50%	–
CC(=O)Nc1cc(C(=O)c2ccnc(N(C)C)c2)cc(-c2cccc3[nH]ccc23)c1 [N-[3-(2-Dimethylamino-pyridine-4-carbonyl)-5-(1H-indol-4-yl)-phenyl]-acetamide]	≥ 50%	≥ 50%	–
Nc1nccc(-c2cc(Br)cc(-c3cccc4[nH]ccc34)c2)n1 [4-[3-Bromo-5-(1H-indol-4-yl)-phenyl]-pyrimidin-2-ylamine]	≥ 50%	≥ 50%	–
COc1cc(C(=O)c2cc(C(N)=O)cc(-c3cccc4[nH]ccc34)c2)ccn1 [3-(1H-Indol-4-yl)-5-(2-methoxy-pyridine-4-carbonyl)-benzamide]	≥ 50%	≥ 50%	–
CC(=O)Nc1cc(-c2cccnc2)cc(-c2cccc3[nH]ccc23)c1 [N-[3-(1H-Indol-4-yl)-5-pyridin-3-yl-phenyl]-acetamide]	≥ 50%	≥ 50%	–
CS(=O)(=O)Nc1cc(-c2ccc3c(c2)OCO3)cc(-c2cccc3[nH]ccc23)c1 [N-[3-benzo[1,3]dioxol-5-yl-5-(1H-indol-4-yl)-phenyl]-methanesulfonamide]	≥ 50%	≥ 50%	–
CS(=O)(=O)Nc1cc(-c2ccnc(Cl)c2)cc(-c2cccc3[nH]ccc23)c1 [N-[3-(2-Chloro-pyridin-4-yl)-5-(1H-indol-4-yl)-phenyl]-methanesulfonamide]	≥ 50%	≥ 50%	–
COC(=O)Nc1cc(C(=O)c2ccnc(OC)c2)cc(-c2cccc3occc23)c1 [[3-Benzofuran-4-yl-5-(2-methoxy-pyridine-4-carbonyl)-phenyl]-carbamic acid methyl ester]	< 50%	< 50%	IC50 ([1]; H522, footnotes * and ** of Table 4, read-out: IC50 (footnote mark in H522 G2/M Block)): 0.5 to 5 µM; IC50 [2]: 0.5 to 5 µM
CN(C)c1ncccc1Nc1cc(O)cc(-c2cccc3[nH]ccc23)c1 [3-(2-Dimethylamino-pyridin-3-ylamino)-5-(1H-indol-4-yl)-phenol]	–	–	activation at 0.1 µM ([1]; Table 3): ≥ 50%; MCF-7 G2/M Block 1 μM [2]: Y (Y indicates a 50% or greater increase in the number of cells in the G2/M phase, as compared to control)
CN(C)c1cc(C(=O)c2cc(NS(C)(=O)=O)cc(-c3cccc4[nH]ccc34)c2)ccn1 [N-[3-(2-Dimethylamino-pyridine-4-carbonyl)-5-(1H-indol-4-yl)-phenyl]-methanesulfonamide]	≥ 50%	≥ 50%	–
COC(=O)Nc1cc(C(=O)c2cc(C)nc(C#N)c2)cc(-c2cccc3[nH]ccc23)c1 [[3-(2-Cyano-6-methyl-pyridine-4-carbonyl)-5-(1H-indol-4-yl)-phenyl]-carbamic acid methyl ester]	≥ 50%	≥ 50%	–
COC(=O)Nc1cc(C(=O)c2cccnc2)cc(-c2ccc(F)c3[nH]ccc23)c1 [[3-(7-Fluoro-1H-indol-4-yl)-5-(pyridine-3-carbonyl)-phenyl]-carbamic acid methyl ester]	≥ 50%	≥ 50%	–
